Assay results reported in the NIST ThermoML archive (doi:10.1016/j.fluid.2008.03.004).
Numbers after ± are expanded uncertainties.

Key:
[1] = 101 kPa, Liquid; for speed of sound: Sing-around technique in a fixed-path interferometer
[2] = xn = mol fraction of the nth substance listed; settings: 101 kPa, Liquid, x2 = 0; for speed of sound: Sing-around technique in a fixed-path interferometer

Cc1ccccc1C [1,2-dimethylbenzene]
[1]
Settings	mass density [kg/m3]	speed of sound [m/s]
288.15 K	883.36 ± 0.35	1381.3 ± 2.2
290.65 K	881.265 ± 0.35	1371.8 ± 2.2
293.15 K	879.168 ± 0.35	1362.2 ± 2.2
295.65 K	877.069 ± 0.36	1351.8 ± 2.2
298.15 K	874.968 ± 0.36	1341.5 ± 2.2
300.65 K	872.865 ± 0.36	1331.2 ± 2.2
303.15 K	870.759 ± 0.36	1321 ± 2.2
305.65 K	868.65 ± 0.37	1310.8 ± 2.2
308.15 K	866.538 ± 0.37	1300.7 ± 2.2
310.65 K	864.422 ± 0.38	1290.6 ± 2.2
313.15 K	862.302 ± 0.38	1280.6 ± 2.2
315.65 K	860.179 ± 0.38	1270.5 ± 2.2
318.15 K	858.054 ± 0.38	1260.6 ± 2.2
320.65 K	855.927 ± 0.39	1250.7 ± 2.2
323.15 K	853.803 ± 0.39	1240.9 ± 2.2

Cc1ccccc1C [1,2-dimethylbenzene] + CCOC(C)(C)C
[2]
Settings	mass density [kg/m3]	speed of sound [m/s]
288.15 K	883.36 ± 0.35	1381.3 ± 2.2
290.65 K	881.265 ± 0.35	1371.8 ± 2.2
293.15 K	879.168 ± 0.35	1362.2 ± 2.2
295.65 K	877.069 ± 0.36	1351.8 ± 2.2
298.15 K	874.968 ± 0.36	1341.5 ± 2.2
300.65 K	872.865 ± 0.36	1331.2 ± 2.2
303.15 K	870.759 ± 0.36	1321 ± 2.2
305.65 K	868.65 ± 0.37	1310.8 ± 2.2
308.15 K	866.538 ± 0.37	1300.7 ± 2.2
310.65 K	864.422 ± 0.38	1290.6 ± 2.2
313.15 K	862.302 ± 0.38	1280.6 ± 2.2
315.65 K	860.179 ± 0.38	1270.5 ± 2.2
318.15 K	858.054 ± 0.38	1260.6 ± 2.2
320.65 K	855.927 ± 0.39	1250.7 ± 2.2
323.15 K	853.803 ± 0.39	1240.9 ± 2.2

Cc1cccc(C)c1 [1,3-dimethylbenzene]
[1]
Settings	mass density [kg/m3]	speed of sound [m/s]
288.15 K	868.459 ± 0.37	1362.7 ± 2.2
290.65 K	866.318 ± 0.37	1352.1 ± 2.2
293.15 K	864.177 ± 0.38	1341.7 ± 2.2
295.65 K	862.035 ± 0.38	1331.3 ± 2.2
298.15 K	859.89 ± 0.38	1320.9 ± 2.2
300.65 K	857.742 ± 0.38	1310.6 ± 2.2
303.15 K	855.593 ± 0.39	1300.3 ± 2.2
305.65 K	853.441 ± 0.39	1290 ± 2.2
308.15 K	851.282 ± 0.39	1279.8 ± 2.2
310.65 K	849.122 ± 0.4	1269.6 ± 2.2
313.15 K	846.958 ± 0.4	1259.5 ± 2.2
315.65 K	844.792 ± 0.4	1249.3 ± 2.2
318.15 K	842.622 ± 0.41	1239.3 ± 2.2
320.65 K	840.452 ± 0.41	1229.3 ± 2.2
323.15 K	838.289 ± 0.41	1219.5 ± 2.2

Cc1cccc(C)c1 [1,3-dimethylbenzene] + CCOC(C)(C)C
[2]
Settings	mass density [kg/m3]	speed of sound [m/s]
288.15 K	868.459 ± 0.37	1362.7 ± 2.2
290.65 K	866.318 ± 0.37	1352.1 ± 2.2
293.15 K	864.177 ± 0.38	1341.7 ± 2.2
295.65 K	862.035 ± 0.38	1331.3 ± 2.2
298.15 K	859.89 ± 0.38	1320.9 ± 2.2
300.65 K	857.742 ± 0.38	1310.6 ± 2.2
303.15 K	855.593 ± 0.39	1300.3 ± 2.2
305.65 K	853.441 ± 0.39	1290 ± 2.2
308.15 K	851.282 ± 0.39	1279.8 ± 2.2
310.65 K	849.122 ± 0.4	1269.6 ± 2.2
313.15 K	846.958 ± 0.4	1259.5 ± 2.2
315.65 K	844.792 ± 0.4	1249.3 ± 2.2
318.15 K	842.622 ± 0.41	1239.3 ± 2.2
320.65 K	840.452 ± 0.41	1229.3 ± 2.2
323.15 K	838.289 ± 0.41	1219.5 ± 2.2

Cc1ccc(C)cc1 [1,4-dimethylbenzene]
[1]
Settings	mass density [kg/m3]	speed of sound [m/s]
288.15 K	865.354 ± 0.37	1347.9 ± 2.2
290.65 K	863.184 ± 0.38	1336.9 ± 2.2
293.15 K	861.015 ± 0.38	1326.1 ± 2.2
295.65 K	858.846 ± 0.38	1315.6 ± 2.2
298.15 K	856.675 ± 0.39	1305.4 ± 2.2
300.65 K	854.501 ± 0.39	1295.3 ± 2.2
303.15 K	852.326 ± 0.39	1285.4 ± 2.2
305.65 K	850.148 ± 0.4	1275.6 ± 2.2
308.15 K	847.969 ± 0.4	1266.1 ± 2.2
310.65 K	845.784 ± 0.4	1256.4 ± 2.2
313.15 K	843.599 ± 0.41	1246.8 ± 2.2
315.65 K	841.41 ± 0.41	1237.6 ± 2.2
318.15 K	839.22 ± 0.41	1228.1 ± 2.2
320.65 K	837.031 ± 0.41	1220.5 ± 2.2
323.15 K	834.849 ± 0.42	1211 ± 2.2
